In patent publication US10004751B2, “Compositions and methods for treating Dengue virus infection” (The J. David Gladstone Institutes, priority 2014, dated 2018):

System: DENV
Experiment: DENV replication in Huh7 cells treated with ARFGAP1 inhibitor
Type: cell-based, Dengue virus
Conditions: DENV MOI of 0.5, increasing concentrations, 24 hours post-infection
Protocol: Human hepatoma Huh7 cells were infected with DENV (MOI of 0.5) and treated with increasing concentrations of QS 11. Viral RNA synthesis, DENV capsid protein levels, and infectious virion production were measured at 24 hours post-infection.

OC[C@H](Cc1ccccc1)Nc1nc(Oc2ccc3c(c2)CCC3)nc2c1ncn2Cc1ccc(-c2ccccc2)cc1 [QS 11]
Viral RNA synthesis (FIG. 6A): reduced viral RNA synthesis
DENV capsid protein levels (FIG. 6B): reduced
Infectious virion production (FIG. 6C): reduced
